The text below walks through data of US20260306502A1, “MITOCHONDRIAL UNCOUPLERS FOR TREATMENT OF METABOLIC DISEASES AND CANCER” (Mito Biopharma, LLC, priority 2022, published 2026).

This experiment deals with C2C12 cells. Kind of experiment: Mitochondrial uncoupling activity by oxygen consumption rate (OCR) assay, Seahorse, in presence of oligomycin. The experiment is classed as cell-based, mouse. The note with it: Mus musculus, C2C12; in the presence of oligomycin 2.5 μM; read-out: COCR-min: minimal concentration increasing OCR in the presence of oligomycin. Here is the method:
By definition, mitochondrial uncoupling is the decoupling of mitochondrial electron transport chain activity (mitochondrial oxidation) from ATP synthesis by mitochondrial ATP synthase. Technically, mitochondrial uncoupling activity is defined by the ability of a chemical compound to induce oxygen consumption of cells or isolated mitochondria in the presence of a mitochondrial ATP synthase inhibitor such as oligomycin. Accordingly, mitochondrial uncoupling activity was determined by oxygen consumption rate assay with a Seahorse XF96 or a Seahorse XF24 instrument following the vendor's instruction, using mouse myoblast C2C12 cells grown in a medium containing 10% fetal bovine serum. OCR was measured stepwise under the following conditions: first under normal growth conditions; then. OCR was measured after oligomycin was added to reach a final concentration of 2.5 μM); then OCR was measured after the compound was further added at varying concentrations. Finally, rotenone and antimycin A were added to confirm that the measurement was mitochondrial oxygen consumption (rotenone and […] mitochondrial electron transport chain inhibitors).
COCR-min the minimal concentration required for each compound to induce OCR in the presence of oligomycin, of disclosed compounds, was also determined by varying the final concentration of the compound added to the Seahorse OCR analysis experiment as described above (FIG. 2, varying testing compound concentration). Table 8 summarizes the mitochondrial uncoupling activity of disclosed compounds, as represented by COCR-min.
On to `COCOCc1cc(Cl)cc(C(=O)Nc2nc3ccc(C(F)(F)F)cc3s2)c1O` [Compound 1, 5-chloro-2-hydroxy-3-((methoxymethoxy)methyl)-N-(6-(trifluoromethyl)benzo[d]thiazol-2-yl)benzamide], for which the minimal effective concentration is below 5 µM. Regarding `COCCOCc1cc(Cl)cc(C(=O)Nc2nc3ccc(OC(F)(F)F)cc3s2)c1O` [Compound 5, 5-chloro-2-hydroxy-3-((2-methoxyethoxy)methyl)-N-(6-(trifluoromethoxy)benzo[d]thiazol-2-yl)benzamide], the minimal effective concentration was in the range of 5 to 10 µM.

For `COCCOCc1cc(Cl)cc(C(=O)Nc2cnc(C(F)(F)F)cn2)c1O` [Compound 6, 5-chloro-2-hydroxy-3-((2-methoxyethoxy)methyl)-N-(5-(trifluoromethyl)pyrazin-2-yl)benzamide], the minimal effective concentration is 5 to 10 µM. With `COCCOCc1cc(Cl)cc(C(=O)Nc2nc3ccc(F)cc3s2)c1O` [Compound 8, 5-chloro-N-(6-fluorobenzo[d]thiazol-2-yl)-2-hydroxy-3-((2-methoxyethoxy)methyl)benzamide], the minimal effective concentration was below 5 µM. With `CN(C)CCc1cc(Cl)cc(C(=O)Nc2ccc(C(F)(F)F)cc2Cl)c1O` [Compound 18, 5-chloro-N-(2-chloro-4-(trifluoromethyl)phenyl)-3-(2-(dimethylamino)ethyl)-2-hydroxybenzamide], the minimal effective concentration was below 5 µM.

Take `CC(=O)N1CCN(Cc2cc(Cl)cc(C(=O)Nc3nc4ccc(C(F)(F)F)cc4s3)c2O)CC1` [Compound 19, 3-((4-acetylpiperazin-1-yl)methyl)-5-chloro-2-hydroxy-N-(6-(trifluoromethyl)benzo[d]thiazol-2-yl)benzamide]: the minimal effective concentration fell in the range of 5 to 10 µM. As for `COCCOCc1cc(Cl)cc(C(=O)Nc2ccc(C(F)(F)F)nc2)c1O` [Compound 20, 5-chloro-2-hydroxy-3-((2-methoxyethoxy)methyl)-N-(6-(trifluoromethyl)pyridin-3-yl)benzamide], the figure is 5 to 10 µM. Regarding `COCCOCc1cc(Cl)cc(C(=O)Nc2cnc(C(F)(F)F)nc2)c1O` [Compound 21, 5-chloro-2-hydroxy-3-((2-methoxyethoxy)methyl)-N-(2-(trifluoromethyl)pyrimidin-5-yl)benzamide], the minimal effective concentration is above 10 µM.

In the case of `COCCNCc1cc(Cl)cc(C(=O)Nc2nc3ccc(C(F)(F)F)cc3s2)c1O` [Compound 22, 5-chloro-2-hydroxy-3-(((2-methoxyethyl)amino)methyl)-N-(6-(trifluoromethyl)benzo[d]thiazol-2-yl)benzamide], the minimal effective concentration is below 5 µM.

In the case of `COCCOCCN(C)Cc1cc(Cl)cc(C(=O)Nc2nc3ccc(C(F)(F)F)cc3s2)c1O` [Compound 24, 5-chloro-2-hydroxy-3-(((2-(2-methoxyethoxy)ethyl)(methyl)amino)methyl)-N-(6-(trifluoromethyl)benzo[d]thiazol-2-yl)benzamide], the minimal effective concentration is below 5 µM.

For `CN1CCN(Cc2cc(Cl)cc(C(=O)Nc3nc4ccc(C(F)(F)F)cc4s3)c2O)CC1` [Compound 28, 5-chloro-2-hydroxy-3-((4-methylpiperazin-1-yl)methyl)-N-(6-(trifluoromethyl)benzo[d]thiazol-2-yl)benzamide], the minimal effective concentration was below 5 µM. For `O=C(Nc1nc2ccc(C(F)(F)F)cc2s1)c1cc(Cl)cc(CN2CCC(O)C2)c1O` (stereo not shown) [Compound 30, 5-chloro-2-hydroxy-3-((3-hydroxypyrrolidin-1-yl)methyl)-N-(6-(trifluoromethyl)benzo[d]thiazol-2-yl)benzamide], the minimal effective concentration was above 10 µM. With `CC(=O)NC1CCN(Cc2cc(Cl)cc(C(=O)Nc3nc4ccc(C(F)(F)F)cc4s3)c2O)C1` (stereo not shown) [Compound 33, 3-((3-acetamidopyrrolidin-1-yl)methyl)-5-chloro-2-hydroxy-N-(6-(trifluoromethyl)benzo[d]thiazol-2-yl)benzamide], the minimal effective concentration was above 10 µM.
